Data from patent publication US20070255357A1, “NASAL DECO[…] MICROBES” (Ondine International, Ltd., priority 2006, published 2007).

Tests used:
biofilms of MRSA = assay: Photodisinfection of MRSA biofilms in vitro (methylene blue + Periowave laser); type: cell-based, Methicillin-resistant Staphylococcus aureus; conditions: biofilm; for reduction of MRSA: at least 0.02 wt % methylene blue, laser about 665-675 nm for at least 15 seconds (at least 2.25 J/cm^2)
From the text: (§1) Photodisinfection treatments using methods contemplated by the present invention have been tested against MRSA, Escherichia coli (E. coli), and Enterococcus fecalis (E. fecalis) in vitro and reached high levels of disinfection in within seconds to one minute. Photosensitizing composition comprising of methylene blue at various concentrations ranging from about 0.005 wt % to 0.1 wt % was applied to biofilms of MRSA, E. coli and E. fecalis for about ten seconds. These biofilms were then illuminated by a laser light system at a wavelength of about 665 nm to about 675 nm for a period from about 0 seconds to about 60 seconds (e.g., accumulated energy level of about 0 J/cm^2 to about 9 J/cm^2). The laser light system used was the Periowave™ system which includes a low-intensity laser with power at about 240 mW and the optical probe described in PCT Patent Publication No. WO2006115761.

biofilms of E. coli = assay: Photodisinfection of E. coli biofilms in vitro (methylene blue + Periowave laser); type: cell-based, Escherichia coli; conditions: biofilm; for reduction of E. coli: at least 0.02 wt % methylene blue, laser about 665-675 nm for at least 15 seconds (at least 2.25 J/cm^2)
From the text: as §1

biofilms of E. fecalis = assay: Photodisinfection of E. fecalis biofilms in vitro (methylene blue + Periowave laser); type: cell-based, Enterococcus fecalis; conditions: biofilm
From the text: as §1

MRSA biofilms = assay: SEM evaluation of MRSA biofilms after photodisinfection; type: cell-based, Methicillin-resistant Staphylococcus aureus; conditions: about 0.1 wt % methylene blue, about 10 s contact; about 665-675 nm for about 30 seconds, Periowave laser; FIG. 34 vs FIG. 33
Procedure: (§2) Biofilms heavily colonized with one to four layers of MRSA organisms were contacted with a photosensitizing composition comprising methylene blue at a concentration of about 0.1 wt % for about 10 seconds and then illuminated at a wavelength of about 665 nm to about 675 nm for a period from about 30 seconds using the Periowave™ laser. Thereafter, these biofilms and the controlled MRSA biofilms (e.g., no photodisinfection treatment) were incubated overnight in 0.9 wt % saline and then fixed in 10 wt % Formalin for scanning electron microscope (SEM) evaluation.

E. coli biofilms = assay: SEM evaluation of E. coli biofilms after photodisinfection; type: cell-based, Escherichia coli; conditions: about 0.1 wt % methylene blue, about 10 s contact; about 665-675 nm for about 30 seconds, Periowave laser; FIG. 36 vs FIG. 35
Procedure: as §2, with “to three” for “to four”, “of Escherichia coli (E. coli)” for “of MRSA”, “controlled E. coli” for “controlled MRSA”, “incubated for three hours” for “incubated overnight”, “in 0.9%” for “in 0.9 wt %”, “in 10%” for “in 10 wt %”

otitis externa [1] = assay: Study on patients suffering otitis externa (photodisinfection); type: in vivo, human
Procedure: A study was conducted on patients suffering otitis externa. During the study, a photosensitizing composition comprising of methylene blue at a concentration of about 0.01 wt % was applied using a cotton swab to the treatment site as shown in FIG. 37. Thereafter and referring to FIGS. 38-39, light at a wavelength range from about 665 nm to about 675 nm was applied to the photosensitizing composition located within the treatment site 64 for a period from about 3 minutes to about 5 minutes (3-5 repetitive one minute cycles) using the Periowave™ laser light system.

otitis externa [2] = assay: Photodisinfection of otitis externa treatment site (Examples V to VII); type: in vivo
Procedure: A photosensitizing composition comprising of methylene blue at a concentration of about 0.1 wt % is applied to the otitis externa treatment site. Light at a wavelength range from about 650 nm to about 680 nm is applied to the photosensitizing composition located within the otitis externa treatment site for a period from about 6 minutes to about 10 minutes using a laser with power at about 80 mW. The otitis externa was ameliorated.
A photosensitizing composition comprising of methylene blue at a concentration range of from about 0.001 wt % to about 0.1 wt % is applied to the otitis externa treatment site. Light at a wavelength range from about 650 nm to about 680 nm is applied to the photosensitizing composition located within the treatment site for a period from about 1 minute to about 20 minutes using a laser with power at a range from about 50 mW to about 300 mW. The otitis externa was ameliorated.
A photosensitizing composition comprising of toluidine blue at a concentration range of from about 0.001% wt % to about 0.1 wt % is applied to the otitis externa treatment site. Light at a wavelength range from about 620 nm to about 650 nm is applied to the photosensitizing composition located within the otitis externa treatment site for a period from about 1 minute to about 20 minutes using a laser with power at a range from about 50 mW to about 300 mW. The otitis externa was ameliorated.
For Examples V to VII, it was shown that there is a general inverse relationship between (1) the photosensitizer concentration and (2) the photodisinfection treatment time and/or the amount of power required for the light source. For example, higher concentration of photosensitizer requires less treatment time and/or lower light source power. Conversely, lower concentration of photosensitizer requires longer treatment time and/or higher light source power. Also, less treatment time requires higher concentration of photosensitizer and/or higher light source power.

[3] = methylene blue about 0.02-0.1 wt % and a low power laser (about 240 mW)

CN(C)c1ccc2nc3ccc(=[N+](C)C)cc-3sc2c1 [methylene blue]
reduction of MRSA (biofilms of MRSA; about 10 s contact): at least three | reduction of MRSA (biofilms of MRSA): over 90% | elimination of MRSA by photodisinfection (biofilms of MRSA; [3]): effectively eliminated | reduction of E. coli (biofilms of E. coli; about 10 s contact): at least three | reduction of E. coli (biofilms of E. coli): over 90% | elimination of E. coli by photodisinfection (biofilms of E. coli; [3]): effectively eliminated | reduction of E. fecalis (biofilms of E. fecalis; at least 0.02 wt % methylene blue, laser about 665-675 nm for at least 15 seconds (at least 2.25 J/cm^2)): over 90% | elimination of E. Fecalis by photodisinfection (biofilms of E. fecalis; [3]): effectively eliminated | reduction of MRSA in SEM photograph vs controlled biofilm (MRSA biofilms): substantial reduction of MRSA | reduction of E. coli in SEM photograph vs controlled biofilm (E. coli biofilms): substantial reduction of E. coli | outcome of severe otitis externa (otitis externa [1]; patients with severe otitis externa, about 2 to 5 additional treatments, same protocol, over about one to two weeks): also ameliorated | outcome of otitis externa (otitis externa [1]; patients, about 0.01 wt % methylene blue by cotton swab, about 665-675 nm for about 3-5 minutes, Periowave laser, many patients): ameliorated | outcome of otitis externa (otitis externa [2]; Example V: about 0.1 wt % methylene blue, about 650-680 nm for about 6-10 minutes, laser about 80 mW): ameliorated | outcome of otitis externa (otitis externa [2]; Example VI: about 0.001-0.1 wt % methylene blue, about 650-680 nm for about 1-20 minutes, laser about 50-300 mW): ameliorated

Cc1cc2nc3ccc(N(C)C)cc3[s+]c2cc1N.[Cl-] [toluidine blue]
outcome of otitis externa (otitis externa [2]; Example VII: about 0.001-0.1 wt % toluidine blue, about 620-650 nm for about 1-20 minutes, laser about 50-300 mW): ameliorated
